How the values were obtained:
sham or SCI animals = experiment: Conditioned Place Preference (CPP), addictive potential; details: for CPP to morphine: added to morphine at either dose (1.0 or 2.5 mg/kg), sham or SCI animals
Experimental: Methods: 55 female, Long-Evans rats were tested for mechanical thresholds prior to receiving a spinal contusion (SCI) or sham surgery. […] Conditioned Place Preference (CPP) to each drug combination was assessed to determine the addictive potential of that specific combination.
Mechanical thresholds were assessed in 3-5 month old female Long-Evans rats before and ˜21 days after a mild, traumatic SCI (contusion model). […] Conditioned place preference was performed under each drug condition (5 days alternating drug/vehicle pairing, with testing on day 6).

SCI animals = experiment: Mechanical pain thresholds / analgesia in animals with spinal cord injury (contusion model); assay type: in vivo, Long-Evans rats; details: FIG. 2 Panel B
Experimental: (§1) Methods: 55 female, Long-Evans rats were tested for mechanical thresholds prior to receiving a spinal contusion (SCI) or sham surgery. Mechanical pain thresholds were measured 21-27 days post-surgery under the following conditions: Morphine alone (1.0 or 2.5 mg/kg); Morphine (1.0 or 2.5 mg/kg)+0.1 mg/kg Pramipexole (PRAM; D3R agonist); Morphine (2.5 mg/kg)+0.1 mg/kg SCH23390 (SCH: D1R antagonist); 0.1 mg/kg Pramipexole alone; 0.1 mg/kg SCH23390 alone. Conditioned Place Preference (CPP) to each drug combination was assessed to determine the addictive potential of that specific combination.
(§2) Mechanical thresholds were assessed in 3-5 month old female Long-Evans rats before and ˜21 days after a mild, traumatic SCI (contusion model). Thresholds were re-assessed after i.p. injection of: Morphine 1.0 mg/kg with and without 0.1 mg/kg pramipexole (PRAM) or Morphine 2.5 mg/kg with and without 0.1 mg/kg PRAM. Conditioned place preference was performed under each drug condition (5 days alternating drug/vehicle pairing, with testing on day 6). Western blotting determined expression of D3R, D1R and u-opioid receptor (MOR) in the lumbar spinal cord.

[1] = system: rat model of chronic neuropathic pain; experiment: Pain withdrawal responses in a rat model of chronic neuropathic pain (pilot studies); assay type: in vivo; details: low-dose morphine
sham animals = experiment: Mechanical pain thresholds / analgesia in sham (healthy control) animals; assay type: in vivo, Long-Evans rats; details: FIG. 2 Panel A, acute treatment
Experimental: as §1, §2

Structure (SMILES) | CPP to morphine (sham or SCI animals) | analgesia (SCI animals) | preference for the drug-paired chamber (sham or SCI animals; FIG. 4) | analgesic effect after long-term application (animals; FIG. 3, long-term application, 2 weeks) | development of morphine tolerance (animals; parallel preliminary studies) | modulating pain withdrawal responses / opioid efficacy [1] | analgesia (sham animals)
CCCN[C@H]1CCc2nc(N)sc2C1 [PRAM, pramipexole] | Neither PRAM nor SCH exacerbated CPP to morphine | – | – | – | – | – | –
CN1CC[C@]23c4c5ccc(O)c4O[C@H]2[C@@H](O)C=C[C@H]3[C@H]1C5 [morphine] | – | neither morphine nor PRAM have any analgesic effect | induces preference for the drug-paired chamber | complete loss of analgesic effect after 2 weeks | became tolerant | became ineffective | improves analgesia significantly
CN1CCc2cc(Cl)c(O)cc2[C@@H](c2ccccc2)C1 [SCH, SCH23390] | Neither PRAM nor SCH exacerbated CPP to morphine | – | – | – | – | – | –

From US12383551B2, “Methods and compositions for maintaining opioid efficacy in the treatment of pain” (East Carolina University, priority 2017, dated 2025)
